# Data reported in paper PMC8986850, “Development and exploration of novel substituted thiosemicarbazones as inhibitors of aldose reductase via in vitro analysis and computational study” (Scientific Reports, 2022).
# Experiments:
# [1] = target: T1, human AKR1B1 (hAKR1B1) (Homo sapiens, UniProt P15121); test: Inhibition of expressed human AKR1B1 (E. coli BL21 (DE3)); format: biochemical; conditions: for IC50: human AKR1B1 expressed in E. coli BL21 (DE3), mean ± SEM of three measurements; for inhibition at 100 µM: human AKR1B1 expressed in E. coli, 100 µM inhibitor, read-out: I (%, 100 µM) (AKR1B1)
# T1 construct: made in house; host or cells: E. coli BL21 (DE3)
# Method: For the enzyme inhibition assay, ALR2 and ALR1 were extracted from bovine sources (ALR2 from eyes and ALR1 from kidneys). Moreover, inhibitions studies were also carried out on the expressed ALR2 (human AKR1B1) and inhibition data for ALR2- bovine source and expressed enzyme was compared and analyzed. The protocols for enzyme extraction and expression in the bacterial system are included in the section of “Supporting information”. […] For the purpose of comparison and validation of enzyme inhibition data, these compounds were tested against human AKR1B1 (hAKR1B1) expressed in E. coli BL21 (DE3).
# For the determination of enzyme activity of ALR1 and ALR2, 100 µL of reaction mixture was composed of 20 µL of buffer (100 mM sodium phosphate, pH 6.2), 30 µL of enzyme extract, 20 µL of substrate (10 mM), 20 µL of cofactor (0.1 mM of NADPH) and 10 µL of test compound (1 mM)[6],[21]. […] Similar protocols were followed for ALR1 and ALR2, however the substrate was different for each enzyme, with sodium-D-glucoronate and DL-glyceraldehyde used as the substrates for the ALR1 and ALR2 assays, respectively. […] In addition, similar protocols were adopted for human AKR1B1 that was expressed in E. coli BL21 (DE3), though the determined protein concentration was 12 µg/mL for the expressed enzyme. Detailed protocols for the preparation of ALR1, ALR2 and expressed human AKR1B1 can be found in the supporting information.
# (§1) The newly synthesized N-substitute thiosemicarbazones (3a-o) were dissolved in 100% DMSO and diluted with deionized water, keeping the DMSO concentration equal to 0.1% in the assay.
# The expression plasmid for aldose reductase (pDONR223_AKR1B1_WT) was gift from Addgene in stable culture. Streaking of this culture has been carried out on LB Agar plate then incubated overnight, after growth of colonies , inoculation was performed in LB medium then incubated this medium in shaking incubator at 37 °C. After 48 hours turbidity was measured when OD=0.6 then some of bacterial growth was prepared as 50% glycerol stock. Others are subjected to plasmid isolation following method Miniprep. Meanwhile E. Coli BL21 De3 cells were made competent then transformation with extracted plasmid (AKR1B1) had been carried out heat shock method. Transformed cell ( E.Coli BL21 DE3+AKR1B1) were grown in 37 °C in shaking incubator for 48 hr. The selection for transformed cells was carried out with the help of antibiotic (spectinomycin 50µg/ml). […] For the expression of aldose reductase , E.coli BL21DE3 were induced with of IPTG(Isopropyl-d-thiogalactopyranoside)[3]. […] The expressed enzyme was stabilized by addition 10 mM Tris–HCl buffer, 0.5 mM EDTA, 5 mM β-marcaptoethanol at pH 8.0 and 20% (v/v) glycerol. Cells were lysed with lysis buffer and then precipitation with ammonium sulfate up to 80% saturation was done . the expressed enzyme was dialyzed overnight against tris buffer. Protein quantification was performed following Bradford protein assay. Aliqoutes were stored at -80 refrigerator.
# [2] = target: T2, ALR1 (Bos taurus, UniProt Q3ZCJ2); test: ALR1 enzyme inhibition assay (enzyme extracted from calf kidneys); format: biochemical, bovine; conditions: bovine kidney ALR1, 100 µM inhibitor; read-out: I (%, 100 µM) (ALR1)
# T2 construct: The calf’s kidneys were obtained after slaughtering and dissection; from tissue; host or cells: calf kidneys
# T2 sequence (Q3ZCJ2 whole entry): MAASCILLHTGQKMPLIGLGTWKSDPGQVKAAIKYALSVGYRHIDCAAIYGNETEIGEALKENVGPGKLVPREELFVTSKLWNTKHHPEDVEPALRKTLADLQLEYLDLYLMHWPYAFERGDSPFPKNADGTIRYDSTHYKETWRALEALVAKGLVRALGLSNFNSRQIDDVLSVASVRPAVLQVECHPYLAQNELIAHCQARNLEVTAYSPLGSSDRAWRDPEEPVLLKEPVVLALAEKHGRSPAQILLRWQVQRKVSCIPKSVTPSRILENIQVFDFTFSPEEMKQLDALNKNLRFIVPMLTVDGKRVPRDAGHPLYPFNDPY
# Method: Compounds 3a-o were tested against ALR2 to evaluate their inhibitory potential against aldose reductase whereas selectivity was determined via performing ALR1 inhibition assay. For the enzyme inhibition assay, ALR2 and ALR1 were extracted from bovine sources (ALR2 from eyes and ALR1 from kidneys). Moreover, inhibitions studies were also carried out on the expressed ALR2 (human AKR1B1) and inhibition data for ALR2- bovine source and expressed enzyme was compared and analyzed. The protocols for enzyme extraction and expression in the bacterial system are included in the section of “Supporting information”. […] For the purpose of comparison and validation of enzyme inhibition data, these compounds were tested against human AKR1B1 (hAKR1B1) expressed in E. coli BL21 (DE3). We found a similar pattern of enzyme inhibition for the synthesized compounds against extracted enzyme (ALR2) as well as expressed enzyme (hAKR1B1).
# (§2) For the determination of enzyme activity of ALR1 and ALR2, 100 µL of reaction mixture was composed of 20 µL of buffer (100 mM sodium phosphate, pH 6.2), 30 µL of enzyme extract, 20 µL of substrate (10 mM), 20 µL of cofactor (0.1 mM of NADPH) and 10 µL of test compound (1 mM)[6],[21]. The reaction mixture without cofactor was incubated at 32°C for 10 min, then the enzymatic reaction was initiated with the addition of NADPH and monitored for 5 minutes. Similar protocols were followed for ALR1 and ALR2, however the substrate was different for each enzyme, with sodium-D-glucoronate and DL-glyceraldehyde used as the substrates for the ALR1 and ALR2 assays, respectively. […] In addition, similar protocols were adopted for human AKR1B1 that was expressed in E. coli BL21 (DE3), though the determined protein concentration was 12 µg/mL for the expressed enzyme. Detailed protocols for the preparation of ALR1, ALR2 and expressed human AKR1B1 can be found in the supporting information.
# as §1
# The calf’s kidneys were obtained after slaughtering and dissection, dissolved in 3 volumes of sodium phosphate buffer (10mM) which is composed of 2.0 mM EDTA, 2.5mM β-mercaptoethanol, 0.25M solution of sucrose at pH 7.25. First, the homogenisation was carried out then centrifugation of the homogenate was performed at 12000 x g at 0-2^◦C for 30 minutes. The precipitates containing insoluble lipids were discarded and the collected supernatant layer was treated with 40% saturation of ammonium sulphate. This liquid mixture was subjected to centrifugation at 11000 x g at 0-2^◦C for 30 minutes. Now, precipitates were again discarded and supernatant was collected and treated with 50% ammonium sulphate and procedure was repeated in the same manner as in previous step. In the last step, the saturation of ammonium sulphate was increased up to 75% and supernatant was subjected to same parameter of centrifugation. At this final step, precipitates were obtained and supernatant layer was discarded. The obtained material of precipitates was composed of ALR1and redissolved in initial buffer that was used during homogenisation. Finally, material was dialyzed overnight with same buffer system. The dialyzed fractions containing ALR1 were stored at -80^◦C for further use[5].
# [3] = DPPH radical scavenging activity; conditions: 100 µM compound, methanolic DPPH 0.025 mg/mL, 517 nm
# Method: DPPH (2,2-diphenyl-1-picrylhydrazyl) was used to explore the free radical quenching ability of 3a-o so as to provide a gauge of their antioxidant potential. The experiment was conducted according to a previously reported protocol with slight modifications. Percent free radical scavenging activities (% FRSA) of 3a-o were determined by spectrophotometric analysis at 517 nm using a homogenous mixture of methanolic DPPH (0.025 mg/mL) and a 100 µM solution of the tested compound, with ascorbic acid used as a positive control (Fig. 3).
# [4] = target: T3, ALR2 (Bos taurus, UniProt P16116); test: ALR2 enzyme inhibition assay (enzyme extracted from calf lenses); format: biochemical, bovine; conditions: for IC50: bovine lens ALR2, substrate DL-glyceraldehyde, mean ± SEM of three measurements; for inhibition at 100 µM: bovine lens ALR2, 100 µM inhibitor, read-out: I (%, 100 µM) (ALR2) (converted)
# T3 construct: from tissue; host or cells: calf eye lenses
# Method: Compounds 3a-o were tested against ALR2 to evaluate their inhibitory potential against aldose reductase whereas selectivity was determined via performing ALR1 inhibition assay. For the enzyme inhibition assay, ALR2 and ALR1 were extracted from bovine sources (ALR2 from eyes and ALR1 from kidneys). Moreover, inhibitions studies were also carried out on the expressed ALR2 (human AKR1B1) and inhibition data for ALR2- bovine source and expressed enzyme was compared and analyzed. The protocols for enzyme extraction and expression in the bacterial system are included in the section of “Supporting information”. […] For the purpose of comparison and validation of enzyme inhibition data, these compounds were tested against human AKR1B1 (hAKR1B1) expressed in E. coli BL21 (DE3).
# as §2, §1
# The extraction of ALR2 was carried out from calf lenses via adopting method described in
# in (Hayman and Kinoshita 1965) with little modification. The lenses were obtained from slaughterhouse immediately after calf’s slaughtering and stored at -20^◦C until further use. These lense (150-170g) were subjected to homogenization with about three times volume of cold distilled water and then centrifugation was carried out for the homogenate at 10,000 x g for 14 minutes for removal of insoluble lipids particles. Precipitates were discarded and supernatant layer was subjected to 40% saturation of ammonium sulphate and again centrifugation was performed with same parameters for 14 minutes and again precipitates were discarded. […] In the last step, the supernatant was subjected to 75% of saturation with ammonium sulphate to obtain ALR2. Now, the precipitates were collected instead supernatant because precipitated protein was the expected desired ALR2. The precipitated enzyme (ALR2) was redissolved in 50mM solution of sodium chloride and dialyzed for 24 hours against 50mM solution (3.5L) of NaCl. The volume was recorded before and after dialysis, then dialyzed material was treated with liquid nitrogen. The extracted ALR2 was stored in 1mL Eppendorf tube in deep freezer at -80 ^◦C till further enzymatic studies.
IC50 [1],inhibition at 100 µM [2],melting point,IC50 [4],inhibition at 100 µM [1],inhibition at 100 µM [4],SMILES,% FRSA (percent free radical scavenging activity) [3]
3.04 ± 0.0034 µM,4.27 to 26.2%,184 to 186 °C,3.12 ± 0.0031 µM,–,–,"CC(C)(C)c1cc(C=NNC(=S)NCc2ccc(Cl)cc2)c(O)c(C(C)(C)C)c1 [Compound 3f, N-(4-chlorobenzyl)-2-(3,5-di-tert-butyl-2-hydroxybenzylidene)hydrazine carbothioamide]",82.98%
2.75 ± 0.003 µM,4.27 to 26.2%,193 to 195 °C,4.01 ± 0.0021 µM,–,–,"CC(C)(C)c1cc(C=NNC(=S)Nc2cccc(Cl)c2Cl)c(O)c(C(C)(C)C)c1 [Compound 3j, 2-(3,5-di-tert-butyl-2-hydroxybenzylidene)-N-(2,3-dichlorophenyl)hydrazine carbothioamide]",89.75%
–,≤ 31.6%,186 to 188 °C,–,41.2%,≤ 44.6%,"Cc1ccc(NC(=S)NN=Cc2cc(C(C)(C)C)cc(C(C)(C)C)c2O)cc1 [Compound 3k, 2-(3,5-di-tert-butyl-2-hydroxybenzylidene)-N-(p-tolyl)hydrazinecarbothioamide]",86.60%
–,≤ 29.9%,174 to 176 °C,–,24.9%,≤ 39.1%,"CC(C)(C)c1cc(C=NNC(=S)NCCc2ccccc2)c(O)c(C(C)(C)C)c1 [Compound 3o, 2-(3,5-di-tert-butyl-2-hydroxybenzylidene)-N-phenethylhydrazinecarbothioamide]",83.02%
